This is an account of results in patent publication US8048879B2, “Substituted 4,5,6,7-tetrahydro-isoxazolo[4,5-c]pyridine compounds and use thereof for producing medicaments” (Gruenenthal GmbH, priority 2005, dated 2011).

Structures are written as SMILES.

T1 sequence (P31652 whole entry): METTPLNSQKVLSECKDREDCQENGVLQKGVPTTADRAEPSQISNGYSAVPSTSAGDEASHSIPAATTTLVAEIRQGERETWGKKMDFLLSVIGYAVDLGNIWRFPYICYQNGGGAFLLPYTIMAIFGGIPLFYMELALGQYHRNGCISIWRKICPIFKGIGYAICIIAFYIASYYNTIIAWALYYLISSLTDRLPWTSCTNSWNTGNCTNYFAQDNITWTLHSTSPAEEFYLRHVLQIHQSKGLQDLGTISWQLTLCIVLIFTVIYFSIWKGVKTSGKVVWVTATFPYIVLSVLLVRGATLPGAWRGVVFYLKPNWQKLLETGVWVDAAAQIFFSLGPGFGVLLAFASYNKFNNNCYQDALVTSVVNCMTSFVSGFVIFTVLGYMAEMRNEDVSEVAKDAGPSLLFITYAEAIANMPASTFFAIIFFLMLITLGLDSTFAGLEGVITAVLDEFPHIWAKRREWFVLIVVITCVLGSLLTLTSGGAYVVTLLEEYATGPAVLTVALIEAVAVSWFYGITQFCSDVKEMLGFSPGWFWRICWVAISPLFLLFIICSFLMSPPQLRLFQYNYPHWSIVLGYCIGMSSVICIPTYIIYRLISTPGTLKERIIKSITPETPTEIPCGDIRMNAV

One assay concerns the target T1, 5-HT transporter (Rattus norvegicus, UniProt P31652).
T1 construct: from tissue; host or cells: rat brain (medulla and pons), synaptosomes, P2 fraction
The experiment in a line: 5-HT uptake inhibition, synaptosomes from rat brain (medulla and pons).
Details: not given
It is filed as biochemical. The text has this:
b) Method for Determining Noradrenalin and 5-HT Uptake Inhibition:
Synaptosomes from rat brain regions are freshly isolated for in vitro studies, as described in the publication “The isolation of nerve endings from brain” by E. G. Gray and V. P. Whittaker, J. Anatomy 96, pages 79-88, 1962. The corresponding literature description is hereby introduced as a reference and is deemed to be part of the disclosure.
The tissue (hypothalamus for the determination of noradrenalin uptake inhibition and medulla and pons for the determination of 5-HT uptake inhibition) is homogenised in ice-cooled 0.32 M sucrose (100 mg of tissue/1 mL) in a glass homogeniser with Teflon pestle using five complete up and down strokes at 840 revolutions/minute.
The homogenate is centrifuged at 4° C. for 10 minutes at 1000 g. After subsequent centrifugation at 17000 g for 55 minutes, the synaptosomes (P2 fraction) are obtained, which are resuspended in 0.32 M […] (0.5 mL/100 mg of original weight).
The particular uptake is measured in a 96-well microtitre plate. The volume is 250 μL and the incubation proceeds at room temperature (approx. 20-25° C.) under an O2 atmosphere.
The incubation time is 7.5 minutes for [^3H]-NA and 5 minutes for [^3H]-5-HT. The 96 samples are then filtered through a Unifilter GF/B® microtitre plate (Packard) and washed with 200 mL of incubated buffer using a “Brabdel MPXRI-96T Cell-Harvester”. The Unifilter GF/B plate is dried for 1 hour at 55° C. The plate is then sealed with a Back Seal® (Packard) and 35 μL of scintillation fluid are added per well (Ultima Gold®, Packard). After sealing with a top Seal® (Packard) and establishing an equilibrium (around 5 hours), radioactivity is determined in a “Trilux 1450 Microbeta” (Wallac).
The quantity of protein used in the above determination corresponds to the values known from the literature, as for example described in “Protein measurement with the folin phenol reagent”, Lowry et al., J. Biol. Chem., 193, 265-275, 1951.
A detailed description of the method may additionally be found in the literature, for example in M. Ch. Frink, H.-H. Hennies, W. Engelberger, M. Haurand and B. Wilffert (1996) Arzneim.-Forsch./Drug Res. 46 (III), 11, 1029-1036.
The following characteristics were determined for the NA or 5-HT transporter: […]
Usually inhibition stands for the share of the control response that was lost under treatment. Lower therefore signals a response near the control. For the molecule `CC(C)C(NC(=O)c1noc2c1CN(S(=O)(=O)c1cccc(C(F)(F)F)c1)CC2)C(=O)OC(C)(C)C` (stereo not drawn) [Example 67, 3-methyl-2-{[5-(3-trifluoromethyl-benzenesulfonyl)-4,5,6,7-tetrahydro-isoxazolo[4,5-c]pyridine-3-carbonyl]-amino}-butanoic acid tert-butyl ester], 10 µM produced 73% inhibition. Same read-out and setting: then `O=C(NCC1CC1)c1noc2c1CN(C(=S)NCc1ccc(Cl)cc1)CC2` [Example 129, 5-(4-chloro-benzylthiocarbamoyl)-4,5,6,7-tetrahydro-isoxazolo[4,5-c]pyridine-3-carboxylic acid cyclopropylmethyl amide], with 75%; and `COc1ccc(OCCNC(=O)c2noc3c2CN(S(=O)(=O)c2ccccc2)CC3)cc1` [Example 106, 5-benzenesulfonyl-4,5,6,7-tetrahydro-isoxazolo[4,5-c]pyridine-3-carboxylic acid [2-(4-methoxy-phenoxy)-ethyl] amide], with 76%; and `CN(C)S(=O)(=O)N1CCc2onc(C(=O)NCc3ccc(C(F)(F)F)c(F)c3)c2C1` [Example 107, 5-dimethylsulfamoyl-4,5,6,7-tetrahydro-isoxazolo[4,5-c]pyridine-3-carboxylic acid 3-fluoro-4-trifluoromethyl-benzyl amide], with 61%. In the case of `CCOc1ccc(NC(=O)N2CCc3onc(C(=O)NCc4ccc(F)cc4)c3C2)cc1` [Example 21, 6,7-dihydro-4H-isoxazolo[4,5-c]pyridine-3,5-dicarboxylic acid 5-[(4-ethoxy-phenyl) amide] 3-(4-fluorobenzyl amide)], the “5-HT uptake (rat), 10 μM, % inhibition” value was 56%. `Cc1cccc2c(CCNC(=O)c3noc4c3CN(S(=O)(=O)c3ccc(OC(F)(F)F)cc3)CC4)c[nH]c12` [Example 100, 5-(4-trifluoromethoxy-benzenesulfonyl)-4,5,6,7-tetrahydro-isoxazolo[4,5-c]pyridine-3-carboxylic acid [2-(7-methyl-1H-indol-3-yl)-ethyl] amide] showed an inhibition at 10 µM of 83%. Same read-out and setting: then `C=CCCC(=O)N1CCc2onc(C(=O)NCC3CC3)c2C1` [Example 66, 5-Pent-4-enoyl-4,5,6,7-tetrahydro-isoxazolo[4,5-c]pyridine-3-carboxylic acid cyclopropylmethyl amide], with 62%. In the case of `O=C(NCc1ccc(F)cc1F)c1noc2c1CN(S(=O)(=O)c1cc(Cl)ccc1Cl)CC2` [Example 112, 5-(2,5-dichloro-benzenesulfonyl)-4,5,6,7-tetrahydro-isoxazolo[4,5-c]pyridine-3-carboxylic acid 2,4-difluoro-benzyl amide], the inhibition at 10 µM was 71%. The same measure, in the same setting: then `CSc1ccc(CN(Cc2ccco2)C(=O)c2noc3c2CN(S(=O)(=O)N(C)C)CC3)cc1` [Example 89, 5-dimethylsulfamoyl-4,5,6,7-tetrahydro-isoxazolo[4,5-c]pyridine-3-carboxylic acid furan-2-ylmethyl-(4-methylsulfanyl-benzyl) amide], with 64%; and `CC(C)(C)OC(=O)NC(COCc1ccccc1)C(=O)N1CCc2onc(C(=O)NCc3cccnc3)c2C1` (stereo not drawn) [Example 27, (1-benzyloxymethyl-2-oxo-2-{3-[(pyridin-3-ylmethyl)-carbamoyl]-6,7-dihydro-4H-isoxazolo[4,5-c]pyridin-5-yl}-ethyl)-carbamic acid tert-butyl ester], with 41%; and `Cc1nn(-c2ccccc2)nc1C(=O)N1CCc2onc(C(=O)NCc3cccnc3)c2C1` [Example 46, 5-(5-methyl-2-phenyl-2H-[1,2,3]triazole-4-carbonyl)-4,5,6,7-tetrahydro-isoxazolo[4,5-c]pyridine-3-carboxylic acid (pyridin-3-ylmethyl) amide], with 79%.

Turning to `O=C(O)COCC(=O)N1CCc2onc(C(=O)NCc3cccs3)c2C1` [Example 30, (2-oxo-2-{3-[(thiophen-2-ylmethyl)-carbamoyl]-6,7-dihydro-4H-isoxazolo[4,5-c]pyridin-5-yl}-ethoxy)acetic acid], 10 µM produced 57% inhibition. Same read-out and setting: then `CN(C)CCNC(=O)c1noc2c1CN(C(=O)c1cccc(SC(F)F)c1)CC2` [Example 93, 5-(3-difluoromethylsulfanyl-benzoyl)-4,5,6,7-tetrahydro-isoxazolo[4,5-c]pyridine-3-carboxylic acid (2-dimethylamino-ethyl) amide], with 88%. For the molecule `CCCCOc1ccc(NC(=O)N2CCc3onc(C(=O)NCCOC)c3C2)cc1` [Example 7, 6,7-dihydro-4H-isoxazolo[4,5-c]pyridine-3,5-dicarboxylic acid 5-[(4-butoxy-phenyl) amide] 3-[(2-methoxy-ethyl) amide]], the “5-HT uptake (rat), 10 μM, % inhibition” value was 44%. Same read-out and setting: then `COc1ccc(Cl)cc1NC(=O)N1CCc2onc(C(=O)NCCc3ccccc3)c2C1` [Example 22, 6,7-dihydro-4H-isoxazolo[4,5-c]pyridine-3,5-dicarboxylic acid 5-[(5-chloro-2-methoxyphenyl) amide] 3-(phenethyl amide)], with 60%. With `C#CCNC(=O)c1noc2c1CN(C(=O)c1cccc(C)c1)CC2` [Example 108, 5-(3-methyl-benzoyl)-4,5,6,7-tetrahydro-isoxazolo[4,5-c]pyridine-3-carboxylic acid prop-2-ynyl amide], the inhibition at 10 µM came out at 88%. In the case of `Cc1ccc(CNC(=O)c2noc3c2CN(C(=S)Nc2c(F)c(F)c(F)c(F)c2F)CC3)o1` [Example 133, 5-pentafluorophenylthiocarbamoyl-4,5,6,7-tetrahydro-isoxazolo[4,5-c]pyridine-3-carboxylic acid (5-methyl-furan-2-ylmethyl) amide], the “5-HT uptake (rat), 10 μM, % inhibition” value was found to be 63%.

Regarding `CCCCC(CC)CNC(=O)c1noc2c1CN(S(=O)(=O)c1cccc(C(F)(F)F)c1)CC2` (stereo not drawn) [Example 73], the “5-HT uptake (rat), 10 μM, % inhibition” value is given as 63%.

On to `O=C(NCc1ccc(F)cc1)c1noc2c1CN(C(=O)COc1ccccc1)CC2` [Example 54, 5-(2-phenoxy-acetyl)-4,5,6,7-tetrahydro-isoxazolo[4,5-c]pyridine-3-carboxylic acid 4-fluorobenzyl amide], for which the inhibition at 10 µM was 84%. For `CCSCCNC(=O)c1noc2c1CN(C(=O)Nc1cccc(OC)c1)CC2` [Example 11, 6,7-dihydro-4H-isoxazolo[4,5-c]pyridine-3,5-dicarboxylic acid 3-[(2-ethylsulfanyl-ethyl) amide]5-[(3-methoxyphenyl) amide]], the “5-HT uptake (rat), 10 μM, % inhibition” value is reported as 54%. Molecule `CCOC(=O)CCNC(=O)c1noc2c1CN(C(=O)c1ccc(OC)cc1)CC2` [Example 98, 3-{[5-(4-methoxy-benzoyl)-4,5,6,7-tetrahydro-isoxazolo[4,5-c]pyridine-3-carbonyl]-amino}-propionic acid ethyl ester] displayed an inhibition at 10 µM of 75%. The same measure, in the same setting: then `CCOC(=O)C(C)NC(=O)c1noc2c1CN(S(=O)(=O)c1cccs1)CC2` (stereo not drawn) [Example 85, 2-{[5-(thiophene-2-sulfonyl)-4,5,6,7-tetrahydro-isoxazolo[4,5-c]pyridine-3-carbonyl]-amino}-propionic acid ethyl ester], with 67%. For `Cc1ccc(C(=O)N2CCc3onc(C(=O)NCCN(C)C)c3C2)c(F)c1F` [Example 74], the “5-HT uptake (rat), 10 μM, % inhibition” value is on record as 62%. As to `CN(C)CCNC(=O)c1noc2c1CN(C(=O)C=Cc1ccccc1)CC2` [Example 36, 5-(3-phenyl-acryloyl)-4,5,6,7-tetrahydro-isoxazolo[4,5-c]pyridine-3-carboxylic acid (2-dimethylamino-ethyl) amide], the inhibition at 10 µM is 72%. As to `O=C(NCc1ccccc1)c1noc2c1CN(C(=O)Nc1ccccc1)CC2` [Example 17, 6,7-dihydro-4H-isoxazolo[4,5-c]pyridine-3,5-dicarboxylic acid 3-benzyl amide 5-phenyl amide], the “5-HT uptake (rat), 10 μM, % inhibition” value is reported as 64%. Regarding `Cc1ccc(CNC(=O)c2noc3c2CN(C(=O)C(C)(C)CC(=O)O)CC3)o1` [Example 31, 3,3-dimethyl-4-{3-[(5-methyl-furan-2-ylmethyl)-carbamoyl]-6,7-dihydro-4H-isoxazolo[4,5-c]pyridin-5-yl}-4-oxo-butanoic acid], 10 µM produced 57% inhibition.

Still in this assay, the particulars now being: 10 µM.
As for `Cc1ccc(S(=O)(=O)N2CCc3onc(C(=O)NCc4ccc(S(N)(=O)=O)cc4)c3C2)cc1` [Example 56, 5-(toluene-4-sulfonyl)-4,5,6,7-tetrahydro-isoxazolo[4,5-c]pyridine-3-carboxylic acid 4-sulfamoyl-benzyl amide], the “5-HT uptake (rat), 10 μM, % inhibition” value is reported as 96%.
